Experimental data taken from BindingDB's records for doi:10.1007/s10822-022-00478-x (Roche Innovation Center Basel, F. Hoffmann-La Roche Ltd., 2022).

Target: cAMP and cAMP-inhibited cGMP 3',5'-cyclic phosphodiesterase 10A (Homo sapiens, UniProt Q9Y233)
Assay: PDE10A assay
Protocol: Compounds were diluted in 20 mM HEPES/NaOH (pH 7.5), 10 mM MgCl2 and 0.05 mg/ml bovine serum albumin. A fixed amount of 2 ng/well human PDE10A enzyme was added and incubated at room temperature for 15 min under agitation. The reaction was started by the addition of the substrate cocktail [3H]cGMP (Perkin Elmer NET337001MC, S.A. 13.5 Ci/mmol) / cGMP at a final concentration of 50 nM and incubated for an additional 15 min. The reaction was stopped by the addition of 0.5 mg/well of Y-Si SPA beads. The plates were shaken for 1 h, followed by a brief centrifugation (170 g for 1 min). The radioactivity bound to the beads was estimated using a TopCount (Perkin-Elmer). For the determination of IC50 values, a four parameters logistics equation was used. pIC50 is defined as − log10(IC50).

IC50	SMILES
0.00127 µM	Cc1c(C#N)nc2ccc(C#Cc3nc(-c4ccccc4)cn3C)nn12 [Roche-Dataset for PDE10A, Compound 79]
0.163 µM	COCCN(C)C(=O)c1cnn(C)c1C(=O)Nc1ccn2cc(-c3cccc(F)n3)nc2n1 [Roche-Dataset for PDE10A, Compound 81]
0.014 µM	Cn1ncc(C(=O)NCCOCCO)c1C(=O)Nc1ccn2nc(-c3ccccc3)nc2c1 [Roche-Dataset for PDE10A, Compound 84]
0.052 µM	O=C(Nc1ccn2nc(-c3ccccc3)nc2c1)c1cc(Cl)nc(N2CCCCC2)c1 [Roche-Dataset for PDE10A, Compound 86]
0.041 µM	CCn1cc(-c2ccccc2)nc1CCc1nc2ccccc2nc1C [Roche-Dataset for PDE10A, Compound 87]
0.00368 µM	CN(C)c1nc(OCc2nc(-c3ccccc3)cn2C)nc2ccc(Cl)cc12 [Roche-Dataset for PDE10A, Compound 89]
0.043 µM	Cn1cc(-c2ccccc2)nc1CCNC(=O)c1cccn2c(C3CC3)nnc12 [Roche-Dataset for PDE10A, Compound 92]
0.00914 µM	Cn1cc(-c2ccccc2)nc1CCc1nc2ccc(Cl)cc2c(=O)[nH]1 [Roche-Dataset for PDE10A, Compound 93]
0.987 µM	Cn1cc(-c2ccccc2)nc1CCc1nc(-c2ccccc2)cc(=O)[nH]1 [Roche-Dataset for PDE10A, Compound 94]
8.34 µM	CN(c1cncnc1)c1ccc(C2CC2)nc1C(=O)N[C@@H]1CCN(c2ccc(Br)cn2)C1 [Roche-Dataset for PDE10A, Compound 95]
0.00085 µM	Cn1ncc(C(=O)N2CCC2)c1C(=O)Nc1ccn2nc(-c3cccc(OCF)c3)nc2c1 [Roche-Dataset for PDE10A, Compound 96]
0.00064 µM	COc1ccc(Cn2nc(N3CCCC3)nc2CCc2nc3c(Cl)cc(Cl)c(C)n3n2)cc1 [Roche-Dataset for PDE10A, Compound 97]
0.00344 µM	Cn1cc(-c2ccccc2)nc1CCc1nc2ccccc2nc1N1CCCC1 [Roche-Dataset for PDE10A, Compound 98]
0.017 µM	Cc1cc(CNC(=O)c2cnn(C)c2C(=O)Nc2ccn3cc(-c4ccccc4)nc3n2)n[nH]1 [Roche-Dataset for PDE10A, Compound 99]
0.016 µM	Cn1cc(-c2ccccc2)nc1COc1nc(OC2CCOCC2)c2cc(Cl)ccc2n1 [Roche-Dataset for PDE10A, Compound 100]
0.00612 µM	O=C(Nc1ccn2nc(-c3ccccc3)nc2c1)c1cc(Cl)nc(NC2CC2)c1 [Roche-Dataset for PDE10A, Compound 101]
0.00211 µM	O=C(NCCc1cnc(-c2ccccc2)[nH]1)c1nc(C2CC2)ccc1Nc1cncnc1 [Roche-Dataset for PDE10A, Compound 102]
0.00188 µM	Cc1c(C(F)(F)F)nc2ccc(C#Cc3nc(-c4ccccc4)cn3C)nn12 [Roche-Dataset for PDE10A, Compound 106]
0.371 µM	Cn1cc(-c2ccccc2)nc1COc1cc(N2CCOCC2)nc(-c2ccn[nH]2)n1 [Roche-Dataset for PDE10A, Compound 108]
0.052 µM	CN(C(=O)c1cnn(C)c1C(=O)N[C@@H]1CCn2c(nc(-c3ccccc3)c2Cl)C1)C1CC1 [Roche-Dataset for PDE10A, Compound 110]
0.034 µM	COCCN(C)C(=O)c1cnn(C)c1C(=O)N[C@@H]1CCn2cc(-c3ccccc3)nc2C1 [Roche-Dataset for PDE10A, Compound 112]
0.00853 µM	Cc1cccc(-c2cn3c(n2)C[C@H](NC(=O)c2c(C(=O)N(C)C4CC4)cnn2C)CC3)c1 [Roche-Dataset for PDE10A, Compound 114]
0.00045 µM	Cn1c(Cl)nc(C(=O)N2CCC2)c1C(=O)Nc1ccn2nc(-c3ccccc3)nc2c1 [Roche-Dataset for PDE10A, Compound 115]

IC50	SMILES
0.065 µM	CC(C)Oc1cc(C(=O)Nc2ccn3nc(-c4ccccc4)nc3c2)cc(Cl)n1 [Roche-Dataset for PDE10A, Compound 116]
0.00235 µM	O=C(N[C@@H]1C[C@@H](CO)N(c2ccc(Cl)cn2)C1)c1nc(C2CC2)ccc1Nc1cncnc1 [Roche-Dataset for PDE10A, Compound 118]
0.0005 µM	Cc1c(Cl)cc(OCC(F)(F)F)c2nc(CCc3nc(N4CCCC4)nn3C)nn12 [Roche-Dataset for PDE10A, Compound 119]
0.0006 µM	COc1ccccc1-c1nc2cc(NC(=O)c3c(C(=O)N4CCC4)cnn3C)ccn2n1 [Roche-Dataset for PDE10A, Compound 120]
0.033 µM	COc1c(Cl)ccc2nc(CCc3nc(-c4ccccc4)cn3C)[nH]c(=O)c12 [Roche-Dataset for PDE10A, Compound 123]
0.00398 µM	Cn1ncc(C(=O)N(CCO)CCO)c1C(=O)Nc1ccn2nc(-c3ccccc3)nc2c1 [Roche-Dataset for PDE10A, Compound 125]
0.00525 µM	Cc1nc(CCc2nc(-c3ccccc3)cn2C)nc2ccccc12 [Roche-Dataset for PDE10A, Compound 129]
1.34 µM	O=C(Nc1ccn2nc(-c3ccccc3)nc2c1)c1c(C(=O)N2CCC2)cnn1CCF [Roche-Dataset for PDE10A, Compound 131]
0.048 µM	O=C(Nc1ccn2nc(-c3ccccc3)nc2c1)c1cc(Cl)nc(N2CCCC2)c1 [Roche-Dataset for PDE10A, Compound 132]
0.0043 µM	CN(C(=O)c1cnn(C)c1C(=O)N[C@@H]1CCn2cc(-c3ccccc3)nc2C1)C1CC1 [Roche-Dataset for PDE10A, Compound 133]
0.00043 µM	Cc1c(Br)cc(C(F)(F)F)c2nc(CCc3nc(N4CCCC4)nn3C)nn12 [Roche-Dataset for PDE10A, Compound 135]
1.73 µM	CCN(C)C(=O)c1cnn(C)c1C(=O)N[C@@H]1CCn2cc(-c3cccc(OC)c3)nc2C1 [Roche-Dataset for PDE10A, Compound 136]
0.0007 µM	Cn1ncc(C(=O)N2CCC2)c1C(=O)Nc1cn(-c2ccc3ccccc3n2)cn1 [Roche-Dataset for PDE10A, Compound 137]
0.025 µM	COC1CN(C(=O)c2cnn(C)c2C(=O)Nc2ccn3nc(-c4ccccc4)nc3c2)C1 [Roche-Dataset for PDE10A, Compound 139]
0.00106 µM	Cn1ncc(C(=O)N2CCC2)c1C(=O)Nc1ccn2nc(-c3cccc(F)c3)nc2c1 [Roche-Dataset for PDE10A, Compound 140]
0.00736 µM	Cc1cccc(-c2cn3c(n2)C[C@H](NC(=O)c2c(C(=O)N4CCC4)cnn2C)CC3)c1 [Roche-Dataset for PDE10A, Compound 141]
10 µM	CCN(C)C(=O)c1c(C(=O)Nc2ccn3cc(-c4ccccc4)nc3n2)cnn1C [Roche-Dataset for PDE10A, Compound 144]
0.00017 µM	COCCOc1cc(Cl)c(C)n2nc(CCc3nc(N4CCCC4)nn3C)nc12 [Roche-Dataset for PDE10A, Compound 146]
0.78 µM	COCCN(C)C(=O)c1cnn(C)c1C(=O)Nc1ccn2cc(-c3ccnc(F)c3)nc2n1 [Roche-Dataset for PDE10A, Compound 147]
0.91 µM	COc1cccc(-c2cn3c(n2)C[C@H](NC(=O)c2c(C(=O)N4CCC4)cnn2C)CC3)c1 [Roche-Dataset for PDE10A, Compound 148]
0.342 µM	O=C1c2ccccc2C(=O)N1CCc1nc(-c2ccccc2)cs1 [Roche-Dataset for PDE10A, Compound 150]
0.051 µM	CNC(=O)c1cc2[nH]c(-c3ccccc3)nc2cc1NC(=O)c1oc(COCc2ccccc2)nc1C [Roche-Dataset for PDE10A, Compound 152]
